The values below come from US20240142457A1, “USE OF CASD1 AS A BIOMARKER OF A CANCER EXPRESSING THE O-ACETYLATED-GD2 GANGLIOSIDE” (OGD2 PHARMA, priority 2021, published 2024).

The subject of data set [1] is OAcGD2 expression in MDA-MB-231 GD3S+ cells. Put plainly: OAcGD2 immunocytochemistry and confocal microscopy after CERK inhibitor or siRNA. The note with it: 1 μM NVP231, 2, 4, 6, 8, 20, 24 or 48 hours; increase from 2 to 8 hours, decrease after 8 hours. The format is cell-based, human. The procedure: (§1) Transfections were performed with 10 μM of siRNA control non-targeting (D001810-10-20, Horizon), siRNA targeting CASD1 (L-016926-01-0010, Horizon), or two different siRNA targeting CERK: CERK2 (D-004061-02-0010, Horizon), or CERK4 ([…], Horizon) and 4 μL of RNAimax (#137781, Thermo fischer Scientific) in 500 μL of UltraMEM (Lonza). In 6-well plates, 150,000 cells were grown in 1,5 mL of DMEM and transfection mix. Cells were collected 72 hours after transfection for qPCR or immunocytochemistry experiments.
Cells were seeded in 6-well plates (150,000 cells/well) with coverslips in 2 mL of DMEM medium. After 24 hours, the medium was replaced with DMEM containing 1 μM of the CERK inhibitor NVP231 (SigmaN9289). After 2 h, 4 h, 6 h, 8 h, 20 h, 24 h or 48 h of CERK inhibitor treatment, cells were collected for immunocytochemistry experiments.
Transfected cells were grown on glass coverslips and were fixed for 20 min in 4% paraformaldehyde. Cells were washed three times with PBS 1X and membrane permeabilization was performed in 5 μg/mL digitonine in PBS 1X for 20 min. After 3 washes, cells were saturated in PBS 1X-BSA 0.5% blocking buffer. […] The green fluorescence was acquired with λex=488 nm and λem=500-530 nm, DAPI with λex=350 nm and λem=460 nm. […] Mean fluorescence intensity was calculated with macro using ImageJ.

The next data set has as its system MDA-MB-231 GD3S+ cells. Put plainly: Transwell migration assay. The note with it: 1 μM NVP231, 24 hours, vs untreated. Type of data set: cell-based, human. The procedure:
as §1
Cells were seeded in 12-well plates containing migration chamber in serum-free medium. Below the chamber, medium with serum was added into the wells in the presence or absence of 1 μM of NVP231. After 24 hours incubation at 37° C., wells were fixed with 4% paraformaldehyde and non-migratory cells were swapped with cotton swabs. Cells were washed three times and nuclei were stained with DAPI. Membranes were cut out and mounted between glass slide and coverslip with fluorescent mounting medium. Nuclei were counted using A1 Nikon confocal microscopy.

Data set [2] concerns OAcGD2 expression in MDA-MB-231 GD3S+ cells. The data set can be described thus: siRNA screen, OAcGD2 immunofluorescence (8B6 mAb) with automated imaging. The format is cell-based, human. The note with it: fixed cells treated with NaOH 0.1M before primary antibody staining, compared to siNT transfected wells. The procedure: 2.5 μL/well of 500 nM siGenome siRNA (Dharmacon/Horizon) was printed into blackwalled 384 well cell carrier ultra plates (Perkin Elmer) with Velocity 11 (Agilent) as described before (Chia et al., 2012, Mol. Syst. Biol., 8: 629.). Reverse siRNA transfection was performed by pre-mixing 0.1 μL of Dharmafect 1 transfection reagent (#T-2001-03, Horizon) with 7.4 μL of Optimem for 5 minutes. Addition of mixture to the siRNA plate was then performed with small multidrop combi cassette (Thermo-Fisher) and was left for complexation for 20 minutes with shaking. Addition of 2750 cells in 40 μL of DMEM supplemented with 10% FCS per well was then performed with multidrop combi standard cassette at medium speed (Thermo-Fisher). siRNA targeting-GD2S (L-011279-00-0020, Horizon), Polo like kinase 1 (PLK1; L-003290-00-0020, Horizon) and […] (D-001810-10-20, Horizon) were used as screen controls.
After 72 h of incubation, transfected cells were fixed with 50 μL per well of 4% paraformaldehyde in 2% sucrose and 0.1M sodium phosphate buffer, […] at 37° C. […]
An OAcGD2 expression metric was derived with total cell thresholded fluorescence intensity obtained by immunodetection with 8B6 mAb in MDA-MB-231 GD3S+cells and was normalized with Hoeschst nuclei counts. […]

The conditions of data set [3]: attributed to GD2 expression in healthy peripheral nerve fibers; cited from earlier work.

As for `O=C(Nc1nc2ccc(NC(=O)C34CC5CC(CC(C5)C3)C4)cc2s1)c1ccccc1` [CERK inhibitor, NVP231], the “OAcGD2 expression (mean fluorescence intensity)” value in data set [1] was “transitory overexpression”. In addition, the “migration capacity of the cells” value with MDA-MB-231 GD3S+ cells was “no effect”.

`[Na+].[OH-]` [NaOH, Sodium hydroxide]: the OAcGD2 staining entry in data set [2] is “abolished”.

B1: Dinutuximab: anti-GD2 monoclonal antibody approved for pediatric high-risk neuroblastoma (antibody, chains of the INN, looked up, V domains shown)
VH: EVQLLQSGPELEKPGASVMISCKASGSSFTGYNMNWVRQNIGKSLEWIGAIDPYYGGTSYNQKFKGRATLTVDKSSSTAYMHLKSLTSEDSAVYYCVSGMEYWGQGTSVTVSS
VL: EIVMTQSPATLSVSPGERATLSCRSSQSLVHRNGNTYLHWYLQKPGQSPKLLIHKVSNRFSGVPDRFSGSGSGTDFTLKISRVEAEDLGVYFCSQSTHVPPLTFGAGTKLELK
Turning to B1, in data set [3], the side effects result is reported as “severe side effects”.
